Patent publication US20220105206A1, “SENSITIVITY ADVANCES IN ULTRASOUND SWITCHABLE FLUORESCENCE SYSTEMS AND TECHNIQUES” (Board of Regents, The University of Texas System, priority 2020, published 2022)

Assays:
[1] = literature value; cited from earlier work
[2] = Excitation and emission spectra of LNPs (Example 5); assay type: physicochemical; settings: 530 nm excitation, 25° C.
Protocol: The hydrodynamic sizes of liposomes were measured with the DLS particle analyzer (NanoBrook 90PlusPALS, Brookhaven Instruments, USA). The incident angle of the 659 nm laser was 90 degrees. Samples were diluted with DI water until the count rate reaches 300-700 kcps and the temperature was set at 25° C. The excitation and emission spectra of LNPs were characterized via a spectrometer (Fluoromax-Plus-C, Horiba, Japan) using a 300 μL quartz cuvette (Hellma, Germany) with stir at 25° C. The excitation spectrum was scanned from 650-810 nm with an 830 nm LP emission filter and an emission recording wavelength at 850 nm. The emission spectrum was acquired using a 530 nm excitation light with a 550 nm LP emission filter (Semrock, USA) and recorded from 650-850 nm.

[3] = cited from earlier work

- emission peak [2]: 809 nm
SMILES: CC1(C)C(/C=C/C=C/C=C/C=C2\N(CCCCS(=O)(=O)O)c3ccc4ccccc4c3C2(C)C)=[N+](CCCCS(=O)(=O)[O-])c2ccc3ccccc3c21 [ICG, indocyanine green]
- emission wavelength [1]: around 810 nm
- maximum absorption wavelength [1]: around 785 nm
- degradation of aqueous solutions ([3]; DI water and buffered saline): degraded relatively quickly by day 20
- plasma half-life [3]: 2 to 4 min
